Experimental data as given in US5190919A, “Antihemostatic Factor VII peptides” (Board of Regents, The University of Texas System, priority 1989, dated 1993).
Where two headings read alike, the source gives them in different places. Ends that are not written are not given here.

What was measured:
[1] = target: T1, Factor VII-tissue factor complex (Homo sapiens, UniProt P08709+P13726); experiment: Rate of Factor X activation, two-stage chromogenic (amidolytic) assay with purified proteins; format: biochemical; details: for IC50: derivatives of peptide 194-214 (FIG. 4), read-out: Apparent CI50, rate of Factor Xa formation
T1 construct: Factor VII/VIIa (6), Factor X (7), and Factor Xa (8) were isolated as previously reported; Tissue factor was prepared from human brain as described (9); from tissue; host or cells: Tissue factor from human brain (gift of Dr. J. H. Morrissey)
T1 sequence (P13726 33-295, one chain of several): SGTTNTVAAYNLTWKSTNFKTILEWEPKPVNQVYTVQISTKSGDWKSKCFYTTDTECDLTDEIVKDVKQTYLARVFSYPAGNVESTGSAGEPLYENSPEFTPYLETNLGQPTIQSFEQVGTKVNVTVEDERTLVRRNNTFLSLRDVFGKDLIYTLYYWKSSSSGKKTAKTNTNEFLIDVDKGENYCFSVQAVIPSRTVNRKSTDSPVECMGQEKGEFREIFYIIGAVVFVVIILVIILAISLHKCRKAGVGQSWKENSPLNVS
Experimental: (§1) 3. Rate of Factor X activation: The effect of the synthetic peptides on the rate of activation of Factor X was analyzed in a purified system employing chromogenic assays. For the inhibition experiments, peptides were diluted in 20 mM Tris-HCl, 150 mM NaCl, pH 7.4 (TBS) and preincubated with 10 microliters each of Factor X (180 nM) and tissue factor (0.075%) at 37 degrees Centigrade in a total volume of 140 microliters adjusted with TBS containing 1% bovine serum albumin (BSA) and 5 mM CaCl2. After 30 minutes, Factor X activation was initiated by the addition of 10 microliters of Factor VII (2 pM). At defined timed intervals, 20 microliter aliquots were removed and added to a microtiter plate containing 80 microliters of 50 mM Tris-HCl, 225 mM NaCl and 10 mM EDTA, pH 8.2. Following sample collection, 50 microliters of 0.6 mM chromogenic substrate was added and the rate of change in the absorbance at 405 nm was monitored for 10 minutes using a Vmax Kinetic Microplate Reader (Molecular Devices, Inc., Palo Alto, Calif.). The rate of Factor Xa formation was calculated from the slope of linear regression of data plotted as a function of the initial rate of hydrolysis (OD405 /min) versus time and expressed as OD405 /min^2.
(§2) 5. Inhibition assays: The inhibition of Factor VII function was determined in the two-stage chromogenic assay described in Example I-A, 3. The peptides were initially screened at 200 μM added concentration. To determine the concentration of peptide required to inhibit the rate of Factor X activation by 50% (CI50), peptides at various concentrations or buffer (TBS-BSA) were incubated with their respective complexes. Following the addition of Factor VII, the rate of Factor Xa generation was determined and the percent of Factor X activation in the presence of different concentrations of Factor VII peptides relative to buffer controls was calculated. Analogous determinations of the CI50 values were measured in the specific coagulation assay outlined above. Factor VII activity in the presence of varying concentrations of peptide was measured by comparing the clotting times to a standard curve constructed from the log of the clot time versus the log of Factor VII concentration in the same incubation mixtures described for the peptides.
(§3) Kinetic analysis of multiple inhibitors known to be noncompetitive in nature was conducted holding the concentration of the first inhibitory peptide constant and varying the concentration of a second inhibitory peptide. The analysis for mutual exclusivity of the inhibitory peptides employed the methods adapted from Segel (12). […] Regression lines which intersect with one another indicate mutual non-exclusivity of one peptide to another, i.e. tested peptides act as regions which are spatially separate from one another.
(§4) Factor VII function results from a two-step mechanism. First, Factor VII must associate with tissue factor in order to form the active macromolecular complex and second, Factor VII activity within the macromolecular complex can be measured by the conversion of substrate to product, e.g. activation of Factor X. The peptides of the present invention were tested for their ability to inhibit Factor X activation by employing the two-stage chromogenic assay described in Example I-A, 3. Inhibition of Factor X activation measured by this assay detects both of the steps stated for Factor VII function. To verify the inhibitory effect of the synthetic peptides, each of the components were titrated. […] Factor X was titrated against the preformed Factor VII-tissue factor complex in the presence of at least 10^4 molar excess of each peptide. Selected peptides were inoubated with tissue factor and Factor X for 30 minutes at […] before the addition of Factor VII. This preincubation time was sufficient for the peptides to reach equilibrium with the target protein (13). […]

[2] = test system: Factor VII-tissue factor complex; experiment: as above; format: biochemical, human; details: for Factor Xa Formation (% of Control Rate): 200 μM of each synthetic peptide, amidolytic assay, purified proteins; for Dose-dependent inhibition of the rate of Factor Xa formation / Factor VII activity: result in words
Experimental: as §1, §2, §3, §4

[3] = target: T2, Factor VII (Homo sapiens, UniProt P08709); experiment: Two-stage clotting assay specific for Factor VII function in Factor VII-depleted plasma; format: biochemical; details: for IC50: Table 2, Factor VII-depleted plasma, tissue factor, read-out: Concentration for 50% Inhibition, VIIa Coagulant Activity
T2 construct: Factor VII/VIIa (6), Factor X (7), and Factor Xa (8) were isolated as previously reported
T2 sequence (P08709 61-466): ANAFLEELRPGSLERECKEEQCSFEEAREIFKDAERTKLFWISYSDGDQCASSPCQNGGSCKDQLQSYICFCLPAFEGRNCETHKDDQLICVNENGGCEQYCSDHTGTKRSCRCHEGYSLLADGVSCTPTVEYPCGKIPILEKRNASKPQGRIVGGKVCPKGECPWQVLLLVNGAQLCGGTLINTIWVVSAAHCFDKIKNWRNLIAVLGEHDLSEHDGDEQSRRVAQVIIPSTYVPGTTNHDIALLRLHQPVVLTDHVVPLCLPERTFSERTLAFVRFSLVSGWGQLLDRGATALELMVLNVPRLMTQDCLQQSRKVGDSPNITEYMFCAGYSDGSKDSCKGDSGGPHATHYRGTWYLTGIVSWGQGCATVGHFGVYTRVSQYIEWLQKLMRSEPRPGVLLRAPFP
Experimental: 4. Coagulation assays: The effect of the synthetic peptides and antibodies to them on Factor VII coagulation activity was determined using two-stage clotting assays specific for Factor VII function.
Synthetic peptides were individually preincubated with 20 μl each of plasma immunochemically depleted of Factor VII and 0.25% tissue factor at 37 degrees Centigrade in a total volume of 190 μl adjusted with TBS containing 1% BSA and 5 mM CaCl2. At the end of 30 minutes, coagulation was initiated by the addition of 10 μl of Factor VII (1 nM). The time for clot formation was measured using a Fibrometer (BBL, Cockesysville, Md.). Factor VII activity in the presence of varying concentrations of peptide was quantitated by comparing their clotting times to a standard curve constructed from the log of the clot time versus the log of a known amount of Factor VII in the same reaction mixture without added peptide.
as §2, with “To determine the concentration of peptide required to inhibit the rate of Factor X activation by 50% (CI50), peptides at various concentrations or buffer (TBS-BSA) were incubated with their respective complexes.” left out
Based on the results of the chromogenic assays, three peptides, 208-229, 285-305 and 276-390, were selected for further study for their ability to inhibit a coagulation-based assay designed to measure Factor VII activity. […] After Factor VII was added, the time of clot formation was determined and quantitated.

[4] = Table 4, derivatives of inhibitory peptides, read-out: CI50, concentration of peptide inhibiting the rate of Factor Xa activation by 50%

## 193-203: Factor VII region II synthetic peptide used in mixed inhibition; possibly the 196-203 of Table 4 (YPCGKIPILEK; UniProt P08709 193-203, looked up, fragment) [Peptide 193-203]
[1]; Dixon plots, 193-203 at 0, 14, 28 μM (FIG. 6A), parallel regression lines
  Mixed inhibition, mutual exclusivity of peptides 209-221 and 193-203: mutually exclusive

## AVLGEHDLSEHDG [Peptide 206-218, AVLGEHDLSEHDG]
[1]
  IC50: ~50 µM

## CFDKIKNWRNLIAVLGEHDLS-NH2 [Peptide 194-214]
[1]
  IC50: ~70 µM

## GEHDLSEHDGDEQ [Peptide 209-221, GEHDLSEHDGDEQ]
[1]
  IC50: ~70 µM

## GKVCPKGEC [Peptide 156-164]
[2]
  Factor Xa Formation (% of Control Rate): 97 % of Control Rate

## GQLLDRGATALELMVLNVPRLGC-NH2 [Peptide 285-305]
[2]; 9.5 μM peptide, varying Factor X concentration (FIG. 1)
  Reduction of the rate and extent of Factor X activation: about 50%
[2]
  Factor Xa Formation (% of Control Rate): 0 % of Control Rate
  Dose-dependent inhibition of the rate of Factor Xa formation / Factor VII activity: significantly inhibit the rate of Factor Xa formation in a dose-dependent manner
[2]; 200 μM peptide
  Inhibition of the rate of Factor Xa formation relative to control reactions: completely inhibited
[2]; Dixon plots, 285-305 at 0, 1.5, 3.0 μM (FIG. 6B), lines intersect above abscissa
  Mixed inhibition, mutual exclusivity of peptides 209-221 and 285-305: lack of mutual exclusively
[2]; FIG. 2
  Concentration for 50% inhibition, fold less than that for peptide 44-50, 194-214, 208-229 or 376-390: 15 to 20 fold
  Concentration for 50% inhibition, fold less than that seen with peptides 170-178 and 330-340: 75 to 100 fold
[2]; Table 2, read-out: Concentration for 50% Inhibition, Rate of Factor Xa Formation
  IC50: 3 µM
[2]; [4]
  IC50: 3 µM
[2]; from Dixon plots of the rate of Factor Xa formation, three Factor X concentrations, read-out: Ki, peptide inhibition constants for Factor VII activity
  Ki: 2.8 ± 0.4 µM
[3]; varying peptide concentrations (FIG. 7)
  Inhibition of clot formation: inhibited clot formation in a dose-dependent manner

## LGEHDLSEHDGDEQSRRVAQVIGC-NH2 [Peptide 208-229]
[1]
  IC50: ~50 µM
[3]
  IC50: 225 µM

## PRLMTQDCLQQSRKVGDSPNITEYMFC [Peptide 303-329]
[2]
  Factor Xa Formation (% of Control Rate): 92 % of Control Rate

## R-T-K-L-F-W-I-S-Y-S-D-G-D-Q-C (RTKLFWISYSDGDQC) [Peptide 36-50]
[2]
  Dose-dependent inhibition of the rate of Factor Xa formation / Factor VII activity: significantly inhibit the rate of Factor Xa formation in a dose-dependent manner

## RNLIAVLGEHDLSE [Peptide 202-214, RNLIAVLGEHDLSE]
[2]; [4]
  IC50: 205 µM

## VYTRVSQYIEWLQKL-NH2 [Peptide 376-390, VYTRVSQYIEWLQKL]
[3]
  IC50: 172 µM
